The values that follow come from patent US20260250262A1, “NEW COMPOUND AND PHARMACEUTICAL COMPOSITION COMPRISING SAME” (SAMJIN PHARMACEUTICAL CO., LTD., priority 2023, published 2026).

As a reminder, the IC50 is the concentration needed to halve the response being measured. Broadly, the CC50 is the concentration giving 50% cytotoxicity. Low readings indicate harm at low concentration, high ones better tolerance by the cells.

Test [1] has as its target T1, Recombinant NAMPT protein (Homo sapiens, UniProt P43490).
T1 construct: purchased BPS bioscience #7176-1
Briefly: NAMPT enzyme inhibition assay (BPS Bioscience NAMPT Inhibitor Screening Assay Kit). It is filed as biochemical. The following applies: 30 min pre-incubation, 2 h at 30° C., fluorescence. On the procedure:
Recombinant NAMPT protein was added to each well of a black 96-well plate, and dilution buffer was added to a blank well instead of NAMPT protein. A 5× concentrated compound solution was added and pre-incubated at room temperature (approximately 22° C.) for 30 minutes before the start of the reaction so that the compound and protein might bind before the enzyme reaction. At this time, the concentration of NAMPT protein was adjusted and used according to the enzyme activity of each protein lot within the final concentration range of 4-10 ng/μl, and the test compound was serially diluted at a ratio of 1:3 from 1000 nM to 1 nM, and experiments were conducted with n=2 for about seven concentrations. […] The NAMPT enzyme activity (%) was calculated by subtracting the measurement value of the blank well without NAMPT protein from the measurement value of all wells, and then taking the measurement value of the control well without the compound as 100%.

Test [2] relates to HCT-116 cell lines. Briefly: Cellular NAD measurement assay (NAD/NADH-Glo). It is filed as cell-based. Particulars: Homo sapiens; HCT-116, 24 hours treatment, intracellular NAD+/NADH level. On the procedure:
With regard to HCT-116 cell lines, the decrease in intracellular NAD+ and NADH levels due to the inhibition of NAMPT enzyme activity by compounds was evaluated using NAD/NADH-Glo™ Assay (Promega, G9072) from Promega. The cells were incubated using DMEM (Gibco, 11995-065) medium containing 10% FBS. The HCT-116 cells were incubated for 24 hours after being distributed at a density of 2,500 cells per well in a 96-well plate, and were treated with the drugs using serum-free DMEM. First, the compounds were dissolved in 100% dimethyl sulfoxide (DMSO), and then diluted in the culture medium so that the final concentration of DMSO might reach 0.5%, and treated with the drugs. The final concentration range of the compounds was 0.1 nM to 100 nM. After that, they were further incubated for 24 hours under conditions of 37° C. and CO2 5%. To conduct the NAD/NADH-Glo™ Assay, the culture medium of drug-treated cells was removed, 50 μL of DPBS was treated per well, and left at room temperature for five minutes. The required amount of NAD/NADH-Glo™ Detection Reagent (Reconstituted Luciferin Detection Reagent 1 mL, Reductase 5 μL, Reductase Substrate 5 μL, NAD Cycling Enzyme 5 μL, NAD Cycling Substrate 25 μL) was prepared according to the manufacturer's manual and treated in an amount of 50 μL per well. After incubating for two minutes at 400 rpm in a plate shaker for cell lysis, the cells were incubated for 30 minutes at room temperature, and luminescence was measured. NAD+/NADH levels were calculated by subtracting the measurement value of the blank well without cells from the measurement value of all wells and taking the 0.5% DMSO-treated control as 100%.

Test [3] deals with HCT-116 (colorectal cancer). Briefly: Tumor cytotoxicity assay (MTT), HCT-116. It is filed as cell-based. The following applies: Homo sapiens, HCT-116, 72 hours. On the procedure: (§1) First, the compounds were prepared in 100% dimethyl sulfoxide (DMSO) at concentrations of 0.02 μM to 200 μM, and then diluted in the culture medium so that the final concentration of DMSO might reach 0.5%, and treated with the drugs. The final concentration range of the compounds was 0.1 nM to 1000 nM. After that, they were further incubated for 72 hours under conditions of 37° C. and CO2 5%. […] The cell viability (%) was relatively determined by subtracting the reference 650 nm optical density (O.D.) from the 570 nm O.D., and the 0.5% DMSO-treated control was set as 100% as the standard.

The test system of test [4] is NCI-N87 (gastric cancer). As to the kind of experiment: Tumor cytotoxicity assay (MTT), NCI-N87. The format is cell-based. The following applies: Homo sapiens, NCI-N87, 72 hours. On the procedure: as §1

T1 sequence (P43490 whole entry): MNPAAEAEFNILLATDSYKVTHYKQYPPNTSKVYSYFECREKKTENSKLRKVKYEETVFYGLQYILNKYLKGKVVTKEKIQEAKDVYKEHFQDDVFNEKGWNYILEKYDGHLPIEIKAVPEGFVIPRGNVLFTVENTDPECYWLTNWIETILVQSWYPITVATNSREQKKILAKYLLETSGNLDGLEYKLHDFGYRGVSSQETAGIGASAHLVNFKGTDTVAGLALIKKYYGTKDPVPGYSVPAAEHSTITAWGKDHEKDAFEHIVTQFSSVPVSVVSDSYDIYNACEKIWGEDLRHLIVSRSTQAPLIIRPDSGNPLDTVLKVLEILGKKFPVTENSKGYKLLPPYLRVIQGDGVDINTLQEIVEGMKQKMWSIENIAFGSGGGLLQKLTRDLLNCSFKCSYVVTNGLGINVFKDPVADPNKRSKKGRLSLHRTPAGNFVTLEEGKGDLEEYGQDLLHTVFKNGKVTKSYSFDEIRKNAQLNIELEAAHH

On to `O=C(NCCc1cccnc1)Nc1ccc(-c2ccncc2)c(C#Cc2ccc(F)cc2)c1` [Compound 1, 1-(3-((4-fluorophenyl)ethynyl)-4-(pyridin-4-yl)phenyl)-3-(2-(pyridin-3-yl)ethyl)urea], for which the figures for the IC50 in test [1] and in test [2] were less than 500 nM and 10 to 1000 nM, respectively. The CC50 in test [3] and in test [4] was 30 to 100 nM each time.
For `O=C(NCc1ccn2ccnc2c1)Nc1ccc(-c2ccncc2)c(C#Cc2ccc(F)cc2)c1` [Compound 4, 1-(3-((4-fluorophenyl)ethynyl)-4-(pyridin-4-yl)phenyl)-3-(imidazo[1,2-a]pyridin-7-ylmethyl)urea], the IC50 was less than 500 nM in test [1] and not above 10 nM in test [2]. Also, the CC50 in test [3] and in test [4] was less than 30 nM each time.
As for `O=C(NCc1cc2cnccc2[nH]1)Nc1ccc(-c2ccncc2)c(C#Cc2ccc(F)cc2)c1` [Compound 6, 1-((1H-pyrrolo[3,2-c]pyridin-2-yl)methyl)-3-(3-((4-fluorophenyl)ethynyl)-4-(pyridin-4-yl)phenyl)urea], in test [1], the IC50 is less than 500 nM. The same compound came in with a 50% cytotoxic concentration (CC50) in test [3] of 30 to 100 nM.
For the compound `O=C(NCCc1cccnc1)Nc1ccc(-c2ccncc2)c(C#Cc2ccc(C(=O)NCCN3CCCCC3)cc2)c1` [Compound 7, N-(2-(piperidin-1-yl)ethyl)-4-((5-(3-(2-(pyridin-3-yl)ethyl)ureido)-2-(pyridin-4-yl)phenyl)ethynyl)benzamide], the IC50 in test [1] was less than 500 nM. Moreover, the CC50 in test [3] was less than 30 nM.
For `O=C(NCCc1cccnc1)Nc1ccc(-c2ccc(N3CCNCC3)cc2)c(C#Cc2ccc(F)cc2)c1` [Compound 13, 1-(2-((4-fluorophenyl)ethynyl)-4′-(piperazin-1-yl)-[1,1′-biphenyl]-4-yl)-3-(2-(pyridin-3-yl)ethyl)urea], the 50% inhibitory concentration (IC50) in test [1] is less than 500 nM; in test [2], not above 10 nM. Besides, the CC50 in test [3] and in test [4] was less than 30 nM throughout.
On to `Cc1nc2cc(-c3ccc(NC(=O)NCCc4cccnc4)cc3C#Cc3ccc(F)cc3)ccc2c(=O)[nH]1` [Compound 14], for which the IC50 in test [1] was less than 500 nM; in test [2], not above 10 nM. The CC50 in test [3] and in test [4] was less than 30 nM in each case.
Consider `O=C(NCCc1cccnc1)Nc1ccc(-c2ccncc2)c(C#Cc2ccc(C(=O)NCCN3CCC4(CCNC4)CC3)cc2)c1` [Compound 35], for which the concentration for half-maximal inhibition (IC50) in test [1] was less than 500 nM. Besides, the CC50 in test [3] and in test [4] was 30 to 100 nM each time.
`NC1CCCN(CCNC(=O)c2ccc(C#Cc3cc(NC(=O)NCCc4cccnc4)ccc3-c3ccncc3)cc2)C1` (stereo not shown) [Compound 40]: the IC50 in test [1] was less than 500 nM. The CC50 in test [3] and in test [4] was 30 to 100 nM throughout.
For `O=C(NCCc1cccnc1)Nc1ccc(-c2ccncc2)c(C#Cc2ccc(C(=O)NCCN3CCNCC3)cc2)c1` [Compound 47], the half-maximal inhibitory concentration (IC50) in test [1] is less than 500 nM; in test [2] it was 10 to 1000 nM. Also, the CC50 in test [3] was less than 30 nM; in test [4], 30 to 100 nM.
In the case of `NC1CCN(C(=O)c2ccc(C#Cc3cc(NC(=O)NCCc4cccnc4)ccc3-c3ccncc3)cc2)CC1` [Compound 65, 1-(3-((4-(4-aminopiperidin-1-carbonyl)phenyl)ethynyl)-4-(pyridin-4-yl)phenyl)-3-(2-(pyridin-3-yl)ethyl)urea], in test [1], the IC50 is less than 500 nM. Besides, the CC50 in test [3] fell in the range of 30 to 100 nM.
As to `O=C(NCCc1cccnc1)Nc1ccc(-c2ccncc2)c(C#Cc2ccc(C(=O)NC3CCNCC3)cc2)c1` [Compound 66, N-(piperidin-4-yl)-4-((5-(3-(2-(pyridin-3-yl)ethyl)ureido)-2-(pyridin-4-yl)phenyl)ethynyl)benzamide], the half-inhibitory concentration (IC50) in test [1] was less than 500 nM. The figures for the CC50 in test [3] and in test [4] were 30 to 100 nM and less than 30 nM, respectively.
In the case of `O=C(NCCc1cccnc1)Nc1ccc(CC(=O)N2CCCCC2)c(C#Cc2ccc(F)cc2)c1` [Compound 74], the IC50 in test [1] is less than 500 nM. Besides, the CC50 in test [4] is less than 30 nM.
On to `CC(C(=O)NC1CCCCC1)c1ccc(NC(=O)NCCc2cccnc2)cc1C#Cc1ccc(C(=O)NCCN2CCCCC2)cc1` (stereo not shown) [Compound 89], for which the IC50 in test [1] is less than 500 nM. The compound also had a cytotoxic concentration (CC50) in test [3] of 30 to 100 nM.
Regarding `CC(=O)Nc1ccc(C#Cc2cc(NC(=O)NCCc3cccnc3)ccc2-c2ccncc2)cc1` [Compound 126, N-(4-((5-(3-(2-(pyridin-3-yl)ethyl)ureido)-2-(pyridin-4-yl)phenyl)ethynyl)phenyl)acetamide], the IC50 in test [1] was less than 500 nM. The same compound yielded a CC50 in test [4] of less than 30 nM.
As to `Cn1ccc(CS(=O)(=O)c2ccc(NC(=O)NCc3ccn4ccnc4c3)cc2C#Cc2ccc(F)cc2)n1` [Compound 183, 1-(3-((4-fluorophenyl)ethynyl)-4-(((1-methyl-1H-pyrazol-3-yl)methyl)sulfonyl)phenyl)-3-(imidazo[1,2-a]pyridin-7-ylmethyl)urea], the IC50 is less than 500 nM in test [1] and not above 10 nM in test [2]. In test [3], this compound displayed a CC50 of less than 30 nM.
As to `Cc1nc2cc(-c3ccc(NC(=O)NCCc4cccnc4)cc3C#Cc3ccc(F)cc3)ccc2c(=O)n1CCN` [Compound 186], the IC50 in test [1] is less than 500 nM; in test [2], not above 10 nM. Moreover, the CC50 is less than 30 nM in test [3] and 30 to 100 nM in test [4].
Taken in the same sequence, the figures for `O=C(NCc1ccn2ccnc2c1)Nc1ccc(-c2ccncc2)c(C#Cc2ccc(C3CCNCC3)cc2)c1` [Compound 187] were less than 500 nM, not above 10 nM, less than 30 nM and less than 30 nM.
With `Cc1nc2cc(-c3ccc(NC(=O)NCc4ccn5ccnc5c4)cc3C#Cc3ccc(F)cc3)ccc2c(=O)n1CCN` [Compound 188], the IC50 in test [1] is less than 500 nM. Moreover, the CC50 in test [3] and in test [4] was less than 30 nM throughout.
